Laboratory results reported in publication PMC3095212 (Journal of immunology (Baltimore, Md. : 1950), 2011).
Blank lines part the entries; values can stand above or below the compound they belong to. Residues, ends and D or L forms follow the SMILES beside them.

Assays:
CD8-negative 2C T cells = experiment: T cell stimulation/antagonism, secreted IL-2; format: cell-based, mouse; details: 24 h
[1] = test system: CD8-negative m33 Y48βA T cells; experiment: T cell stimulation/antagonism, secreted IL-2; format: cell-based, mouse; details: 24 h
CD8-negative m33 T cells = details: 24 h
K^b = details: ref [28]; cited from earlier work

- IC50 (CD8-negative 2C T cells): 0.44 ± 0.27 nM
- IC50 [1]: 4.7 ± 0.4 nM
Compound: CC(C)C[C@H](NC(=O)[C@H](CC(=O)O)NC(=O)[C@H](Cc1ccccc1)NC(=O)[C@@H]1CCCN1C(=O)[C@H](CCCNC(=N)N)NC(=O)[C@@H]1CCCN1C(=O)[C@H](CO)NC(=O)[C@H](CC(C)C)NC(=O)[C@@H](N)CCC(N)=O)C(=O)O [QL9 F5R] (H-QLSPRPFDL-OH)

- IC50 (CD8-negative m33 T cells): 0.15 nM
Compound: CC[C@H](C)[C@H](NC(=O)[C@@H](N)CO)C(=O)N[C@@H](Cc1ccc(O)cc1)C(=O)N[C@@H](C)C(=O)N[C@@H](Cc1ccc(O)cc1)C(=O)N[C@@H](Cc1ccc(O)cc1)C(=O)NCC(=O)N[C@@H](CC(C)C)C(=O)O [SIY R4A] (H-SIYAYYGL-OH)

Compound: SIINFEKL [OVA]
- half-life of OVA/K^b (K^b): 23 h
